# Assay results reported in patent US9708334B2, “Substituted 2,4,5,6-tetrahydropyrrolo[3,4-c]pyrazole and 4,5,6,7-tetrahydro-2H-pyrazolo[4,3-c]pyridine compounds as GlyT1 inhibitors” (DART NEUROSCIENCE (CAYMAN) LTD., priority 2014, dated 2017).
# Molecular target: T1, GlyT1 (Homo sapiens, UniProt P48067)
# T1 construct: expressed in transfected cells
# T1 sequence (P48067 1-706): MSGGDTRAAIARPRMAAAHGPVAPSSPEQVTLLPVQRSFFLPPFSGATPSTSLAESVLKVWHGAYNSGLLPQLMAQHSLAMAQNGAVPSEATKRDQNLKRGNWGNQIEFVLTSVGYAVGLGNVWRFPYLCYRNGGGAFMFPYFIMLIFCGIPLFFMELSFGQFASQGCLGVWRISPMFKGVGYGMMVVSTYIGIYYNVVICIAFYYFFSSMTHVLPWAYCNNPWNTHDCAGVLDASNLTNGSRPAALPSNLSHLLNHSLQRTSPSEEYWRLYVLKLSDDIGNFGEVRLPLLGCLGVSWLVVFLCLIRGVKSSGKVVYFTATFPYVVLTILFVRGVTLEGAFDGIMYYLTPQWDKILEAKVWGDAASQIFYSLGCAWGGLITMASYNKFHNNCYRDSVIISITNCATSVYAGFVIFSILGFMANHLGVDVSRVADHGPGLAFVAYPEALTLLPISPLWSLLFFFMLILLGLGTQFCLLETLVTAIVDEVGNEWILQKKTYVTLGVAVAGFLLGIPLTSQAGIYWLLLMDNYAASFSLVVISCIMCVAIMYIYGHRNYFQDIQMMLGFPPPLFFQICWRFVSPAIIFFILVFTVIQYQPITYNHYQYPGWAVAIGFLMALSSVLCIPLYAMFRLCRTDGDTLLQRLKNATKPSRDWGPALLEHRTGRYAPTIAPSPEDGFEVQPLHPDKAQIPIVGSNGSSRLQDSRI
# Experiment: Glycine Transporter 1 (GlyT1) uptake assay, scintillation proximity assay of [14C]-glycine uptake
# Type: cell-based
# Conditions: SPA, four parameter logistic fit, read-out: GlyT1 (pIC50) (converted)
# Summary of the method: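 [14C]-glycine uptake read by scintillation proximity on a plate counter. IC50 from four-parameter logistic fit of dose-response data.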
row,IC50 [nM],Structure (SMILES)
1,100 to 1000,"Cc1ccc(F)c(-n2cc3c(n2)CN(C(=O)c2cc(S(C)(=O)=O)ccc2OCC2(C)COC2)C3)c1 [Example 442, 2-(2-Fluoro-5-methylphenyl)-5-{5-methanesulfonyl-2-[(3-methyloxetan-3-yl)methoxy]benzoyl}-2H 4H 5H 6H-pyrrolo[3,4-c]pyrazole]"
2,< 100,"C[C@H](Oc1ccc(C#N)cc1C(=O)N1Cc2cn(-c3ccncc3)nc2C1)C(F)(F)F [Example 443, 3-[2-(Pyridin-4-yl)-2H 4H 5H 6H-pyrrolo[3,4-c]pyrazole-5-carbonyl]-4-{[(2S)-1 1 1-trifluoropropan-2-yl]oxy}benzonitrile]"
3,100 to 1000,"CC(C)Oc1ccc(C#N)cc1C(=O)N1Cc2cnn(CC(F)(F)F)c2C1 [Example 444, 4-(Propan-2-yloxy)-3-[1-(2 2 2-trifluoroethyl)-1H 4H 5H 6H-pyrrolo[3,4-c]pyrazole-5-carbonyl]benzonitrile]"
4,100 to 1000,"CS(=O)(=O)c1ccc(-c2cccc(F)c2)c(C(=O)N2Cc3cnn(CC(F)(F)F)c3C2)c1 [Example 445, 5-[2-(3-Fluorophenyl)-5-methanesulfonylbenzoyl]-1-(2 2 2-trifluoroethyl)-1H 4H 5H 6H-pyrrolo[3,4-c]pyrazole]"
5,< 100,"C[C@H](Oc1ccc(S(C)(=O)=O)cc1C(=O)N1Cc2cnn(-c3cccc4nccn34)c2C1)C(F)(F)F [Example 446, 1-{Imidazo[1 2-a]pyridin-5-yl}-5-(5-methanesulfonyl-2-{[(2S)-1 1 1-trifluoropropan-2-yl]oxy}benzoyl)-1H 4H 5H 6H-pyrrolo[3,4-c]pyrazole]"
6,< 100,"CC(C)Oc1ccc(C#N)cc1C(=O)N1Cc2cn(-c3ccncc3)nc2C1 [Example 447, 4-(Propan-2-yloxy)-3-[2-(pyridin-4-yl)-2H 4H 5H 6H-pyrrolo[3,4-c]pyrazole-5-carbonyl]benzonitrile]"
7,< 100,"CS(=O)(=O)c1ccc(-c2cccc(F)c2)c(C(=O)N2Cc3cn(C4CCOCC4)nc3C2)c1 [Example 448, 5-[2-(3-Fluorophenyl)-5-methanesulfonylbenzoyl]-2-(oxan-4-yl)-2H 4H 5H 6H-pyrrolo[3,4-c]pyrazole]"
8,< 100,"CS(=O)(=O)c1ccc(-c2cccc(F)c2)c(C(=O)N2Cc3cn(CC4CC4)nc3C2)c1 [Example 449, 2-(Cyclopropylmethyl)-5-[2-(3-fluorophenyl)-5-methanesulfonylbenzoyl]-2H 4H 5H 6H-pyrrolo[3,4-c]pyrazole]"
9,100 to 1000,"CC(C)Oc1ccc(C#N)cc1C(=O)N1Cc2cn(CC3CC3)nc2C1 [Example 450, 3-[2-(Cyclopropylmethyl)-2H 4H 5H 6H-pyrrolo[3,4-c]pyrazole-5-carbonyl]-4-(propan-2-yloxy)benzonitrile]"
10,100 to 1000,"C[C@H](Oc1ccc(C#N)cc1C(=O)N1Cc2cn(CC3CC3)nc2C1)C(F)(F)F [Example 451, 3-[2-(Cyclopropylmethyl)-2H 4H 5H 6H-pyrrolo[3,4-c]pyrazole-5-carbonyl]-4-{[(2S)-1 1 1-trifluoropropan-2-yl]oxy}benzonitrile]"
11,1000 to 10000,"CS(=O)(=O)c1ccc(-c2cccc(F)c2)c(C(=O)N2Cc3cnn(CC4CC4)c3C2)c1 [Example 452, 1-(Cyclopropylmethyl)-5-[2-(3-fluorophenyl)-5-methanesulfonylbenzoyl]-1H 4H 5H 6H-pyrrolo[3,4-c]pyrazole]"
12,< 100,"CS(=O)(=O)c1ccc(-c2cccc(F)c2)c(C(=O)N2Cc3cn(CC4CC4(F)F)nc3C2)c1 (stereo not drawn) [Example 453, 2-[(2 2-Difluorocyclopropyl)methyl]-5-[2-(3-fluorophenyl)-5-methanesulfonylbenzoyl]-2H 4H 5H 6H-pyrrolo[3,4-c]pyrazole]"
13,1000 to 10000,"CS(=O)(=O)c1ccc(-c2cccc(F)c2)c(C(=O)N2Cc3cnn(CC4CC4(F)F)c3C2)c1 (stereo not drawn) [Example 454, 1-[(2 2-Difluorocyclopropyl)methyl]-5-[2-(3-fluorophenyl)-5-methanesulfonylbenzoyl]-1H 4H 5H 6H-pyrrolo[3,4-c]pyrazole]"
14,< 100,"C[C@H](Oc1ccc(S(C)(=O)=O)cc1C(=O)N1Cc2cn(CC3CC3(F)F)nc2C1)C(F)(F)F (stereo partly drawn) [Example 455, 2-[(2 2-Difluorocyclopropyl)methyl]-5-(5-methanesulfonyl-2-{[(2S)-1 1 1-trifluoropropan-2-yl]oxy}benzoyl)-2H 4H 5H 6H-pyrrolo[3,4-c]pyrazole]"
15,100 to 1000,"CC(C)Oc1ccc(C#N)cc1C(=O)N1Cc2cn(CC3CC3(F)F)nc2C1 (stereo not drawn) [Example 456, 3-{2-[(2 2-Difluorocyclopropyl)methyl]-2H 4H 5H 6H-pyrrolo[3,4-c]pyrazole-5-carbonyl}-4-(propan-2-yloxy)benzonitrile]"
16,100 to 1000,"C[C@H](Oc1ccc(C#N)cc1C(=O)N1Cc2cn(CC3CC3(F)F)nc2C1)C(F)(F)F (stereo partly drawn) [Example 457, 3-{2-[(2 2-Difluorocyclopropyl)methyl]-2H 4H 5H 6H-pyrrolo[3,4-c]pyrazole-5-carbonyl}-4-{[(2S)-1 1 1-trifluoropropan-2-yl]oxy}benzonitrile]"
17,> 10000,"C[C@H](Oc1ccc(C#N)cc1C(=O)N1Cc2cnn(C3CCOCC3)c2C1)C(F)(F)F [Example 458, 3-[1-(Oxan-4-yl)-1H 4H 5H 6H-pyrrolo[3,4-c]pyrazole-5-carbonyl]-4-{[(2S)-1 1 1-trifluoropropan-2-yl]oxy}benzonitrile]"
18,< 100,"CC(C)Oc1ccc(C#N)cc1C(=O)N1Cc2cn(-c3ccnc(C4CCC4)c3)nc2C1 [Example 459, 3-[2-(2-Cyclobutylpyridin-4-yl)-2H 4H 5H 6H-pyrrolo[3,4-c]pyrazole-5-carbonyl]-4-(propan-2-yloxy)benzonitrile]"
19,< 100,"C[C@H](Oc1ccc(C#N)cc1C(=O)N1Cc2cn(-c3ccnc(C4CCC4)c3)nc2C1)C(F)(F)F [Example 460, 3-[2-(2-Cyclobutylpyridin-4-yl)-2H 4H 5H 6H-pyrrolo[3,4-c]pyrazole-5-carbonyl]-4-{[(2S)-1 1 1-trifluoropropan-2-yl]oxy}benzonitrile]"
20,< 100,"CC(C)Oc1ccc(S(C)(=O)=O)cc1C(=O)N1Cc2cn(CC3CC(F)(F)C3)nc2C1 [Example 461, 2-[(3 3-Difluorocyclobutyl)methyl]-5-[5-methanesulfonyl-2-(propan-2-yloxy)benzoyl]-2H 4H 5H 6H-pyrrolo[3,4-c]pyrazole]"
21,100 to 1000,"C[C@H](Oc1ccc(C#N)cc1C(=O)N1Cc2cn(CC3CC(F)(F)C3)nc2C1)C(F)(F)F [Example 462, 3-{2-[(3 3-Difluorocyclobutyl)methyl]-2H 4H 5H 6H-pyrrolo[3,4-c]pyrazole-5-carbonyl}-4-{[(2S)-1 1 1-trifluoropropan-2-yl]oxy}benzonitrile]"
22,< 100,C[C@H](Oc1ccc(S(C)(=O)=O)cc1C(=O)N1Cc2cn(CC3CC(F)(F)C3)nc2C1)C(F)(F)F [Example 463]
23,< 100,"CS(=O)(=O)c1ccc(-c2cccc(F)c2)c(C(=O)N2Cc3cn(CC4CC(F)(F)C4)nc3C2)c1 [Example 464, 2-[(3 3-Difluorocyclobutyl)methyl]-5-[2-(3-fluorophenyl)-5-methanesulfonylbenzoyl]-2H 4H 5H 6H-pyrrolo[3,4-c]pyrazole]"
24,100 to 1000,"C[C@H](Oc1ccc(C#N)cc1C(=O)N1Cc2cn(-c3ccc(C#N)nc3)nc2C1)C(F)(F)F [Example 465, 5-[5-(5-Cyano-2-{[(2S)-1 1 1-trifluoropropan-2-yl]oxy}benzoyl)-2H 4H 5H 6H-pyrrolo[3,4-c]pyrazol-2-yl]pyridine-2-carbonitrile]"
25,100 to 1000,CC(C)Oc1ccc(C#N)cc1C(=O)N1Cc2cn(-c3ccc(C#N)nc3)nc2C1 [Example 466]
26,100 to 1000,"C[C@H](Oc1ccc(C#N)cc1C(=O)N1Cc2cn(-c3ccnc(C#N)c3)nc2C1)C(F)(F)F [Example 467, 4-[5-(5-Cyano-2-{[(2S)-1 1 1-trifluoropropan-2-yl]oxy}benzoyl)-2H 4H 5H 6H-pyrrolo[3,4-c]pyrazol-2-yl]pyridine-2-carbonitrile]"
27,100 to 1000,"CC(C)Oc1ccc(C#N)cc1C(=O)N1Cc2cn(-c3ccnc(C#N)c3)nc2C1 [Example 468, 4-{5-[5-Cyano-2-(propan-2-yloxy)benzoyl]-2H 4H 5H 6H-pyrrolo[3,4-c]pyrazol-2-yl}pyridine-2-carbonitrile]"
28,< 100,"CS(=O)(=O)c1ccc(-c2cccc(F)c2)c(C(=O)N2Cc3cn(C4CCC(F)(F)CC4)nc3C2)c1 [Example 469, 2-(4 4-Difluorocyclohexyl)-5-[2-(3-fluorophenyl)-5-methanesulfonylbenzoyl]-2H 4H 5H 6H-pyrrolo[3,4-c]pyrazole]"
29,< 100,"CC(C)Oc1ccc(S(C)(=O)=O)cc1C(=O)N1Cc2cn(C3CCC(F)(F)CC3)nc2C1 [Example 470, 2-(4 4-Difluorocyclohexyl)-5-[5-methanesulfonyl-2-(propan-2-yloxy)benzoyl]-2H 4H 5H 6H-pyrrolo[3,4-c]pyrazole]"
30,< 100,"C[C@H](Oc1ccc(S(C)(=O)=O)cc1C(=O)N1Cc2cn(C3CCC(F)(F)CC3)nc2C1)C(F)(F)F [Example 471, 2-(4 4-Difluorocyclohexyl)-5-(5-methanesulfonyl-2-{[(2S)-1 1 1-trifluoropropan-2-yl]oxy}benzoyl)-2H 4H 5H 6H-pyrrolo[3,4-c]pyrazole]"
